# Measured values reported in patent publication US20240307414A1, “METHODS AND MATERIALS FOR TREATING PROSTATE CANCER” (Mayo Foundation for Medical Education and Research, priority 2020, published 2024).
# “Also recorded” adds a separate entry of the source. Read-outs that look alike come from different tables or passages of the source.
# Key:
# [1] = tested on: LNCaP parental and LNCaP-AbiRes cells; assay: Cytotoxicity and proliferation assay (Cyquant direct assay), LNCaP parental and AbiRes; type: cell-based, human; details: for IC50: LNCaP, single treatment preliminary experiments, concentration used in combination with Abi (FIG. 6B), except PD-0325901, read-out: Concentrations corresponding to IC50 of each drug
# Protocol: (§1) 22Rv1 and LNCaP cells purchased from ATCC were routinely cultured in RPMI1640 medium (Gibco, Grand Island, NY) supplemented with 10% FBS (Atlanta Biologicals, Flowery Branch, GA) and 1% Pen-Strep. […] Abi resistant cells (LNCaP-AbiRes or 22Rv1-AbiRes) were compared with parental cells for viability and gene expression after Abi and other treatments.
# (§2) Forty eight hours before abiraterone treatment, cell was seeded in phenol red-free RPMI (Gibco, Grand Island, NY) supplemented with 10% charcoal stripped FBS (Thermo Fisher Scientific, Waltham, MA), and 50 nM pregnenolone was added after 24 hours.
# [2] = tested on: 11 genes (CCNA2, CCNB1, CCNB2, PRC1, SMC2, DLGAP5, ECT2, FBXO5, CDK1, NCAPG, KIF4A); assay: qRT-PCR of the 11 genes in cell lines and PDX organoids after drug treatment; type: cell-based, human; details: for expression of the 11 genes (qRT-PCR): 22Rv1 and LNCaP parental/AbiRes cells, organoids MC-PRX-01 and MC-PRX-05, alone or with Abi
# Protocol: Total RNA for qRT-PCR was extracted from tumor organoids or cell lines using Quick-RNA MiniPrep Kit (Zymo Research, Irvine, CA) according to the manufacturer's instructions. qRT-PCR was performed using the Power SYBR® Green RNA-to-CT 1-Step Kit (Life Technologies, Grand Island, NY) and QuantiTect® (QIAGEN, Germantown, MD) or PrimeTime® (IDT, Inc., Coralville, Iowa) pre-designed qPCR primers (IDT Coralville, IA). Gene expression analyses were performed using ΔΔCt method, and β-actin was used as the internal reference. Three independent experiments were performed. Primer sequences are in Table 1.
# MC-PRX-01 PDX tumor = assay: MC-PRX-01 PDX model treated with abiraterone ± palbociclib/PHA-793887, 35 days; type: in vivo, mice
# Protocol: All patient specimens were collected as part of the PROMOTE study as described elsewhere (see, for example, Champoux. Annu. Rev. Biochem., 70, 369-413 (2001); and Kellner et al., Lancet Oncol., 3, 235-243 (2002)). Briefly, pathology confirmed metastatic tumor biopsy tissues of mCRPC was renal capsule xenografted and 25 mg testosterone pellet was subcutaneously implanted into 6-8 weeks old male CB17 NOD-SCID mice (Jackson laboratories, Bar Harbor, Maine; Charles River Laboratories, Raleigh, North Carolina) and observed for at least 6 months or till the tumor reached 1.0-1.5 cm at maximal length, when sub-xenografts were expanded by subcutaneous implantation with harvested PDX tumor mixed with Matrigel (Corning, Corning, New York) with no exogenous testosterone supplied. Early generation PDX tumors were collected for cryo-storage and next-generation sequencing. Pathology confirmed PDX model generated from AA/P non-responder bone metastatic tumor biopsy tissues were employed to test the in vivo tumor response to abiraterone+Mito/Dox/Palb/PHA. After PDX tumor reached approximately 100 mm3, mice were randomized to 6 groups. […] Body weight and tumor volumes (width^2×length/2) were measured two to three times per week with a digital caliper, and the average tumor volumes were determined. At the end of the treatment period, mice were euthanized and the tumors were removed, dissected and frozen at −80° C. for further analysis.
# [3] = tested on: 22Rv1 parental and 22Rv1-AbiRes cells; assay: Cytotoxicity and proliferation assay (Cyquant direct assay), 22Rv1 parental and AbiRes; type: cell-based, human; details: single treatment preliminary experiments, concentration used in combination with Abi (FIG. 6A), read-out: Concentrations corresponding to IC50 of each drug
# Protocol: as §1, §2
# [4] = tested on: metastatic / castration-resistant prostate cancer; details: patients, literature; cited from earlier work
# [5] = tested on: PDX organoids MC-PRX-01 and MC-PRX-05; assay: PDX derived organoid culture and cytotoxicity assay (3D cell titer)
# [6] = tested on: 11 genes in MC-PRX-01 and MC-PRX-06 PDX tumors; assay: qRT-PCR of the 11 genes in post treatment PDX tumors; type: in vivo, mice; details: MC-PRX-01 and MC-PRX-06 tumors harvested after treatment
structure (smiles),measurement,setting,value
"O=C(NOC[C@H](O)CO)c1ccc(F)c(F)c1Nc1ccc(I)cc1F [PD-0325901, mirdametinib]",response of LNCaP cells to the MEK inhibitor,[1]; LNCaP harbors a Q56P mutation,conferring resistance to this MEK inhibitor
same,expression of the 11 genes (qRT-PCR),[2],less consistency in the suppression
CC(C)CC(=O)Nc1n[nH]c2c1CN(C(=O)C1CCN(C)CC1)C2(C)C [PHA-793887],tumor growth,MC-PRX-01 PDX tumor; 35 days,inhibited tumor growth
same,tumor growth inhibition as single treatment,"MC-PRX-01 PDX tumor; 35 days, tested dosage",did not exhibit statistically significant inhibition
same,sensitization of the tumor to Abi treatment,MC-PRX-01 PDX tumor; combination with Abi,sensitize the tumor to Abi treatment
same,IC50,[3],100 nM
same,IC50,[1],100 nM
same,expression of the 11 genes (qRT-PCR),[2],less consistency in the suppression
CC(=O)O[C@H]1CC[C@@]2(C)C(=CC[C@@H]3[C@@H]2CC[C@]2(C)C(c4cccnc4)=CC[C@@H]32)C1 [abiraterone acetate],overall survival,[4],extend overall survival significantly
C[C@]12CC[C@H](O)CC1=CC[C@@H]1[C@@H]2CC[C@]2(C)C(c3cccnc3)=CC[C@@H]12 [abiraterone],inhibition of organoid growth,"[5]; abiraterone alone at the highest tested concentration, MC-PRX-01 and MC-PRX-05 organoids",less than 10%
COc1cccc2c1C(=O)c1c(O)c3c(c(O)c1C2=O)C[C@@](O)(C(=O)CO)C[C@@H]3O[C@H]1C[C@H](N)[C@H](O)[C@H](C)O1 [doxorubicin],expression of the 11 genes in PDX tumors after treatment (qRT-PCR),[6],significantly downregulated
O=C1c2c(O)ccc(O)c2C(=O)c2c(NCCNCCO)ccc(NCCNCCO)c21 [mitoxantrone],expression of the 11 genes in PDX tumors after treatment (qRT-PCR),[6],significantly downregulated
same,potency relative to the other identified drugs in cytotoxicity experiments,"[5]; range of doses tested, FIG. 6",superior to others; also recorded: most potent
same,IC50,[1]; Homo sapiens,10 nM
same,expression of the 11 genes (qRT-PCR),[2],most consistently suppressed the expression of the 11 genes; also recorded: more significant effects on the 11 gene suppression
same,suppression of the 11 genes in LNCaP Abi-resistant cells compared to parental cells,[2]; LNCaP AbiRes vs parental,better suppression effects
